One assay deals with SLE serum antibody. The experiment in a line: ELISA for antibody reactivity of SLE sera to carb-/cit-/native LL37 and carb-REV, and its correlation with SLEDAI. It counts as binding, human. The procedure: Anti-native LL37/cit-LL37/carb-LL37 antibodies were measured as described. Briefly, 96-well flat-bottom plates (Non-Binding surface polystyrene, Corning, Glendale, AZ USA) were coated with 2 μg/mL of native LL37, cit-LL37 or carb-LL37 in carbonate buffer (0.1 M NaHCHO3, pH 9) for 2 h (or overnight) and washed four times with PBS plus 0.1% Tween-20. This washing buffer was used for washing at all steps. The blocking buffer containing 2% bovine serum albumin (BSA, Sigma) in PBS was used for at least 1 h (or overnight) to saturate unspecific binding sites. After washing, sera were diluted at various concentrations (usually at 1:100 or 1:200) in PBS + 2% BSA followed by 1 h incubation with a horseradish peroxidase–conjugated (HRP) goat anti-human IgG (Sigma-Aldrich), diluted 1:10,000 in PBS. The color was developed for 5 min with 3,3′,5,5′-tetramethylbenzidine (TMB) substrate (Sigma-Aldrich). The reaction was stopped by adding 50 μL of 2 N H2SO4 and absorbance determined at 450 nm with a reference wavelength of 540 nm. Responses were considered positive when the OD measured exceeded the mean OD values measured in healthy donors’ plasma plus two standard deviations (+2SD), calculated on the HD group values, as described.
(§1) Differences between mean values were assessed by Wilcoxon’s matched-pair signed rank test, to compare responses to antigens and control antigens in the same donor. We used Mann-Whitney test for comparison of T-cell and antibody responses between groups of patients and HD. Statistical significance was set at p < 0.05. Correlation analyses were performed by Spearman’s rank-correlation test. Data were analyzed by GraphPad Prism 7.0 or SPSS software.
(An ELISA detects its analyte on a solid surface through an enzyme-linked reagent.)

Another assay relates to SLE CD4 T-cells. Kind of assay: T-cell proliferation (BrdU incorporation, flow cytometry). It counts as cell-based, human. Here is the method: (§2) PBMCs were purified from EDTA-treated blood, on Ficoll-Hypaque (Pharmacia Fine Chemicals, Uppsala, Sweden) and were incubated (10^5 cells/well) in 96-well-flat-bottom-microplates (BD) in T-cell-medium (RPMI 1640, 10% heat-inactivated human serum, HS, Gibco), 2 mM L-glutamine, 10 U/mL penicillin and 100 μg/mL streptomycin), with/without peptides. We performed assays on fresh cells, within 1-to-3 h from collection or on PBMCs frozen in 90% FCS−10% DMSO, whose viability we assessed by Trypan blue exclusion, with an inverted microscope. Recovery of live cells was between 65 and 85% of the frozen number. At day 3 and 5, BrdU was added (1 μg/mL). BrdU-incorporation was detected by APC-labeled anti-BrdU antibody (BD Pharmingen), after surface staining for CD4, CD3, CD8 and analyzed by flow cytometry (Gallios, BeckmanCoulter, Brea, CA, USA). Internal control for T-cell viability and proliferation was PHA treatment (2 μg/mL). SI for proliferation was calculated by dividing percent of BrdU-staining in the presence of each peptide antigen (LL37, carb-LL37, cit-LL37, LL37 reverse, REV; cit-LL37 reverse, cit-REV; carb-LL37 reverse, carb-REV) by the percent obtained in the untreated cells. SI for proliferation was considered positive when the values of percent of BrdU positive cells was three times higher than the values obtained with the control peptides (SI > 3). Assays were repeated twice with each patient. In rare cases in which background proliferation (culture with REV, cit-REV, carb-REV), exceeded antigen-specific proliferation (that is response to LL37, carb-LL37, cit-LL37), the assay was repeated three times. Concomitant phenotype analysis of LL37-responder T-cells included staining for CD3, CD4, CD8, CXCR5 (CXCR5 was assessed on BrdU/CD3/CD4-positive cells).
as §1

Assay [1] deals with native LL37-P1-specific T-cells (HLA-DRB5*0101 tetramer). The experiment in a line: Peptide-MHC-tetramer staining of T-cells after PBMC stimulation. The following applies: 6 days stimulation, CD38hi CD4 T-cells. It counts as cell-based, human. The procedure:
Peptide-MHC-tetramers were from ImmunAware (Denmark). Staining was performed for 40 min with 1microL of tetramer suspension at 37 °C, followed by staining for CD4 (4 °C, 20 min), without washing. After incubation with anti-CD4 antibody, cells were washed, resuspended in PBS and kept at 4 °C. Before flow cytometry-acquisition, cells were labeled with PercP-conjugated 7-AAD to exclude dead cells. The peptide-MHC-tetramers used in this study are: the HLA-DR15-P1: tetramer of HLA-DRB1*1501 LLGDFFRKSKEKIGK (corresponding to the first aa at the NH2-term of the mature native LL37), (PE-conjugated) and the control peptide-MHC-tetramer called DR15-ctr: tetramer of HLA-DRB1*1501 […]1-169-185 (PE-conjugated). The other couple of peptide-MHC-tetramers used were HLA-DRB5*0101 loaded with the same LL37 epitope as above and the control tetramer HLA-DRB5*0101 loaded with the control epitope PVSKMRMATPLLMQA (CLIP-derived).

Another assay concerns pDCs. Kind of assay: IFN-α production by purified pDCs stimulated with peptide-DNA complexes. The following applies: peptide without DNA, 24 h, ELISA. It counts as cell-based, human. Here is the method:
Buffy-coats from HD were from Centro Trasfusionale, Policlinico Umberto I, Rome, IT. After separation of mononuclear cells by Ficoll centrifugation, pDCs were purified as described, by using the Diamond Plasmacytoid Dendritic Cell Isolation Kit (Miltenyi Biotec, Bergisch Gladbach, Germany) to obtain 99% purity. Purified pDCs were seeded into 96-well round-bottom plates at 3.5/5 × 10^4 cells per well in 200 μL RPMI 1640 (GIBCO), supplemented with 10% fetal calf serum (FCS), 1% Hepes and 1% sodium pyruvate. LL37, cit-LL37 and carb-LL37 were premixed with total human genomic DNA (extracted from PBMC of HD, see below) (15 μg/mL). After 15 min incubation at room temperature the mix was added to the pDC cultures. IFN-α in supernatants was measured by ELISA (MabTech, Stockholm, Sweden), after 24 h (according to the manufacturer’s instructions).
Human DNA was extracted from PBMCs, as reported and was fragmented by sonication. Five milligrams of DNA in a volume of 300 μL were fragmented using the Sonics Vibra Cell sonicator (Newtown, CT, USA), with the following settings: 2, 4 and 10 sonication cycles (30 s on, 30 s off, in ice) to obtain DNA fragment sizes between 100 and 1000 bp. The resulting size distribution was controlled by 2% agarose gel electrophoresis.

For the next assay, the system named is memory B-cells. The settings on record: cited from earlier work. An excerpt: LL37 is able to activate innate immune cells and B-cells after forming complexes with nucleic acids in a special molecular conformation, suitable for TLR stimulation. PDCs, as well as B-cells, are both activated by LL37-DNA or LL37-RNA complexes.
Another assay has as its system SLE CD4 T-cells (CXCR5). Kind of assay: CXCR5 (TFH marker) expression on stimulated CD4 T-cells, flow cytometry. It counts as cell-based, human. The following applies: representative plot.
Text: Antibodies to CD4, CD8, CD3 conjugated with various fluorochromes (FITC, phycoerythrin (PE), peridinin-chlorophyll-protein (PerCp), allophycocyanin (APC), PE-Cy7) were from BD Biosciences or eBiosciences (San Diego, CA). For further LL37-specific T-cell characterization and B-cell characterization we used: APC-Cy7-CXCR5 (FAB190), APC or PE-CD38, CD19, CD20, CD27, antibodies, purchased from BD Biosciences, eBiosciences, Novus Biologicals (Littleton, CO), R&D (Minneapolis, MN). Appropriate isotype-matched controls were purchased from the same companies. PerCp-7-AAD was from BD Pharmingen, DAPI from Invitrogen (Thermo Fisher, Carlsbad, CA, USA).
as §2

For “LLGDFFRKSKEKIGKEFKRIVQRIKDFLRNLVPRTES [LL37, mature human cathelicidin antimicrobial peptide, COOH-terminal part (res. 134–170), purchased from Proteogenix]”, the “Antibody reactivity in SLE patients with renal damage versus without renal damage” value with SLE serum antibody (ELISA, N=6 with and N=44 without renal damage, Mann-Whitney, Figure S3 panel a P 0.047) is “non-significant anti-cit- and anti-native-LL37 antibody increase”. In the assay on SLE serum antibody (Spearman), the “Correlation of antibody reactivity with SLEDAI” value is “both responses also correlated with SLEDAI”. Besides, in the assay on SLE CD4 T-cells (BrdU, positive if SI > 3, carb-LL37 8 of 25, native LL37 17 of 31, cit-LL37 16 of 31 SLE patients), the “SLE patients responding by T-cell proliferation” value stood at 55%. Moreover, in assay [1] (Ctr-B5 tetr, lower panels Figure S6), the “Control (Ctr-B5) tetramer positive T-cells” value was 0.2%. Moreover, the “LL37-specific T-cells (LL37-B5 tetramer positive)” value in assay [1] (LL37-B5 tetr, upper panels Figure S6) is listed as 4.27%. Moreover, the “IFN-α response of pDCs to peptide alone” value in the assay with pDCs is “no IFN-α response”. In addition, the “Stimulation of memory B-cells to mature into plasma cells, LL37-DNA complexes” value in the assay with memory B-cells is recorded as “able to stimulate memory B-cells to mature into plasma cells”.

Take “SETRPVLNRLFDK*IRQVIRKEFEK*GIK*EK*SK*RFFDGLL* [carb-REV, control carbamylated reverse (REV) LL37, reference compound]”: in the assay on SLE serum antibody (ELISA, 2 μg/mL coated antigen, sera 1:100 or 1:200, OD 450 nm, positive: OD > mean HD + 2SD, carb-LL37 28 of 45, carb-REV 8 of 47 SLE patients), the “SLE patients showing an antibody response to the antigen” value is recorded as 17%. Moreover, in the assay on SLE serum antibody (ELISA, OD, Mann-Whitney's test), the “SLE serum antibody reactivity (OD) compared to healthy donors” value was “also significant, as compared to response of HD but significantly lower than the response to carb-LL37”. In addition, the “BrdU-positive CD3+CD4+ T-cells” value with SLE CD4 T-cells (BrdU staining, representative zebra plot, Figure S5a) was 5.35%. In addition, the “CXCR5-positive cells among total CD3+CD4+ cells” value with SLE CD4 T-cells (CXCR5) (Figure S5b left panels) worked out at 3.28%. The “CXCR5-positive cells among CD3+CD4+BrdU+ cells” value in the assay on SLE CD4 T-cells (CXCR5) (Figure S5b middle panels) was determined as 8.76%. Also, in the assay with SLE CD4 T-cells (CXCR5) (Figure S5b right panels), the “CXCR5-positive cells among CD3+CD4+BrdU- cells” value is listed as 3.26%.

These data come from paper PMC7915858, “Complementary Effects of Carbamylated and Citrullinated LL37 in Autoimmunity and Inflammation in Systemic Lupus Erythematosus” (International Journal of Molecular Sciences, 2021).
